Experimental data: article PMC6853154 (Clinical and Translational Science, 2019)
Entries after “also recorded” stand apart in the source; their conditions may differ. Like-named read-outs stand apart in the source and are kept apart here.

Key:
[1] = format: in vivo, human; details: for AUC(0-inf) / Cmax / Tmax / half-life: human, plasma, po; for AUC0–∞, mean percent change / Cmax, mean percent change / t1/2, mean percent change: multiple doses vs single dose of efavirenz
CYP1A2 [2] = target: T1, CYP1A2 (Homo sapiens, UniProt P05177); assay: In vivo CYP1A2 activity from urinary caffeine metabolic ratio
T1 sequence (P05177 1-516): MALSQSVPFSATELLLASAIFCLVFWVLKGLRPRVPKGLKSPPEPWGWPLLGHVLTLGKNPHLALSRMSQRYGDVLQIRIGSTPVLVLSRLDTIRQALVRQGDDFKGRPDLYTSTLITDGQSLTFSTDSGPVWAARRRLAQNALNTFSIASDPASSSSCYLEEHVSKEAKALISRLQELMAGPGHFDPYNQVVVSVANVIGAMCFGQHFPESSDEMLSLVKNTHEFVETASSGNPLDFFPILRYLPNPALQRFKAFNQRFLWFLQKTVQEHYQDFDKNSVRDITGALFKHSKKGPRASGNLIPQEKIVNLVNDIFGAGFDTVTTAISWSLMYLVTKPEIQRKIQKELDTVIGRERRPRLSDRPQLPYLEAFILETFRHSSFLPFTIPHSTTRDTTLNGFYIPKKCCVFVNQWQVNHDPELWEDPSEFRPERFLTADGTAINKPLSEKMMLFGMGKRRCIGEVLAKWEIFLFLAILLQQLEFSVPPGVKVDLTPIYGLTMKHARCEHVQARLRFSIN

CYP2A6 [3] = assay: In vivo CYP2A6 activity from urinary caffeine metabolic ratio; set-up: species or system human
CYP2B6 = details: at therapeutically relevant concentrations; cited from earlier work
CYP2C9 = details: at therapeutically relevant concentrations; cited from earlier work
[4] = HIV/tuberculosis‐coinfected patients, cited from earlier work
CYP1A2 [5] = target: T1, CYP1A2; details: human liver microsomal preparations and/or expressed enzymes; cited from earlier work
[6] = target: T2, N‐acetyltransferase 2 (NAT2) (Homo sapiens, UniProt P11245); assay: In vivo NAT2 activity from urinary caffeine metabolic ratio; details: for NAT2 activity, urinary MR AFMU/(AFMU + 1 MU + 1 MX): mean ± SD
T2 sequence (P11245 1-290): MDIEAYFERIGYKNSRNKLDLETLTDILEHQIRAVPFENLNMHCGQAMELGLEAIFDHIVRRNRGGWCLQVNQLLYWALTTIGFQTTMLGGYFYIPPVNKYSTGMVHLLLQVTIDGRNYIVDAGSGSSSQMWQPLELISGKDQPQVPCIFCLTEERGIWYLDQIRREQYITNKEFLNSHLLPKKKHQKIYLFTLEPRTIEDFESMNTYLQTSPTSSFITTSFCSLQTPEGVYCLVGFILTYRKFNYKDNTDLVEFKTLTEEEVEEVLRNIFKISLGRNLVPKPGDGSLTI

[7] = cited from earlier work
xanthine oxidase (XO) = xanthine oxidase (XO) (Homo sapiens, UniProt P47989); assay: In vivo xanthine oxidase activity from urinary caffeine metabolic ratio; details: for XO activity, urinary MR (1 MU)/(1 MX + 1 MU): mean ± SD
CYP2C8 = details: at therapeutically relevant concentrations; cited from earlier work
CYP2A6 [8] = details: human liver microsomal preparations and/or expressed enzymes; cited from earlier work
[9] = Efavirenz plasma exposure in healthy volunteers, also by CYP2B6 genotype; details: following a single dose and multiple doses of efavirenz
CYP1A2 [10] = target: T1, CYP1A2; assay: In vivo CYP1A2 activity from plasma paraxanthine/caffeine metabolic ratio
CYP2C19 = details: at therapeutically relevant concentrations; cited from earlier work
CYP1A2 [11] = details: coadministration of potent CYP1A2 inhibitor; cited from earlier work
[12] = chronic efavirenz relative to single‐dose phase
[13] = multiple doses vs single dose of efavirenz
[14] = multiple doses relative to single‐dose efavirenz
[15] = multiple doses of efavirenz (600 mg/day, 17 days)
[16] = after multiple doses of efavirenz

Sequence of xanthine oxidase (XO) (P47989 whole entry): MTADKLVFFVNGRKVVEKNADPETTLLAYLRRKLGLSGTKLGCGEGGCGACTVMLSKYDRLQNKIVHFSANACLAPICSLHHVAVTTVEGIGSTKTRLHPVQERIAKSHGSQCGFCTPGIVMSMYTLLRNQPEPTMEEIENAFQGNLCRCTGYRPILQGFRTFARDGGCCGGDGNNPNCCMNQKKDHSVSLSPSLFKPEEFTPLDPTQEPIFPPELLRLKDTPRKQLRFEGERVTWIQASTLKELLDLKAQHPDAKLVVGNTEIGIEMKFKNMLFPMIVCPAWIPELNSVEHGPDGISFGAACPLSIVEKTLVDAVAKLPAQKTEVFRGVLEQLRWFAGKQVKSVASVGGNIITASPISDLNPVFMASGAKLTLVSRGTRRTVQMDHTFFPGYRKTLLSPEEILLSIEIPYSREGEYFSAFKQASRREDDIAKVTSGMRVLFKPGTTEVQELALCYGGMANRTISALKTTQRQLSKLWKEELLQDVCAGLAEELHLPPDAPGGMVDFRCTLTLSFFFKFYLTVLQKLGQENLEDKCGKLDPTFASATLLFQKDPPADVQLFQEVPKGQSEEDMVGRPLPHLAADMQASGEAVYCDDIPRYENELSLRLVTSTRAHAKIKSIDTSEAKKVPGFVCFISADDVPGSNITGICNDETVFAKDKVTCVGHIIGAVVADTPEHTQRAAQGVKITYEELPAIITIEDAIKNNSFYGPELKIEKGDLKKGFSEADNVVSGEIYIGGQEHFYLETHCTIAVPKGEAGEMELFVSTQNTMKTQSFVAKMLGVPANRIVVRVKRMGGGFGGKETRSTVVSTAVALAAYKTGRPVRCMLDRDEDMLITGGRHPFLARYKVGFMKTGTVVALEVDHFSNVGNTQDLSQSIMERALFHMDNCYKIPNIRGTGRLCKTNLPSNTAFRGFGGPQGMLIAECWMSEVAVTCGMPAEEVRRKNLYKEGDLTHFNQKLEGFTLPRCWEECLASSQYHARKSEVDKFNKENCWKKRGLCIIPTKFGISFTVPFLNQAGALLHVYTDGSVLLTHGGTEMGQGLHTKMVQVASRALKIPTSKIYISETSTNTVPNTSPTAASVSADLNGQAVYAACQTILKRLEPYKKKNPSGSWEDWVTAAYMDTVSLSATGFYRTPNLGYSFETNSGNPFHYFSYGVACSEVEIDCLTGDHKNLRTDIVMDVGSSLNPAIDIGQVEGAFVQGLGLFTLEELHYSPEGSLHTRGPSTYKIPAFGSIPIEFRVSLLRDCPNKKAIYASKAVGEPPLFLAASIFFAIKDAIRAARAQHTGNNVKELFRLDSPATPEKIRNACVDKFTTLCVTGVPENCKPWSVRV

Cn1c(=O)[nH]c2ncn(C)c2c1=O [Paraxanthine, 1,7‐dimethylxanthine]
AUC(0-inf) [1]: 10800 ± 6100 ng·h/mL
Cmax [1]: 504 ± 236 ng/mL
Tmax [1]: 7 h
half-life [1]: 10.8 ± 9.21 h
AUC(0-inf) ([1]; 150 mg): 8600 ± 5800 ng·h/mL
Cmax ([1]; 150 mg): 358 ± 208 ng/mL
Tmax ([1]; 150 mg): 7 h
half-life ([1]; 150 mg): 12.2 ± 7.88 h
AUC0–∞, mean percent change [1]: −8.6%
Cmax, mean percent change [1]: −24.5%
t1/2, mean percent change [1]: 26.3%

Cn1c(=O)c2c(ncn2C)n(C)c1=O [Caffeine]
Caffeine AUC0‐∞ by CYP2B6 genotype, in words ([1]; both efavirenz treatment groups, compared with *1/*1 genotype): significantly higher for *6/*6 genotype
AUC(0-inf) [1]: 17300 ± 11600 ng·h/mL
Cmax [1]: 1820 ng/mL
Tmax [1]: 1 h
half-life [1]: 7.61 ± 8.29 h
AUC(0-inf) ([1]; 150 mg): 22700 ± 18400 ng·h/mL
Cmax ([1]; 150 mg): 1900 ng/mL
Tmax ([1]; 150 mg): 1 h
half-life ([1]; 150 mg): 8.87 ± 4.98 h
AUC0–∞, mean percent change [1]: 46.2%
Cmax, mean percent change [1]: 17.4%
t1/2, mean percent change [1]: 32.5%

O=C1Nc2ccc(Cl)cc2[C@@](C#CC2CC2)(C(F)(F)F)O1 [efavirenz]
Decrease of CYP1A2 activity measured by urinary MRs (CYP1A2 [2]; [12]): 28.9%
Interindividual range of percent change in urine MR (CYP1A2) (CYP1A2 [2]; [12]): −65.1% to 43.2
CYP1A2 activity, urinary MR, mean percent change (CYP1A2 [2]; [13]): −28.9%
Increase of CYP2A6 activity (CYP2A6 [3]; [14]): 85%
CYP2A6 activity, urinary MR, mean percent change (CYP2A6 [3]; [13]): 85.5%
Inhibition of CYP2B6 in vitro, in words (CYP2B6): directly inhibits
Inhibition of CYP2C9 in vitro, in words (CYP2C9): directly inhibits
Reduction of model‐predicted exposure of isoniazid by efavirenz ([4]; fast acetylators): 29%
Effect of efavirenz on model‐predicted exposure of isoniazid, in words ([4]; slow acetylators): no effect
Inhibition/inactivation of CYP1A2 activity in vitro, in words (CYP1A2 [5]): does not inhibit/inactivate; also recorded: neither a reversible inhibitor nor a mechanism‐based (i.e., time‐dependent) inactivator
NAT2 activity, urinary MR AFMU/(AFMU + 1 MU + 1 MX) [6, 15]: 0.32 ± 0.22
Effect on NAT2 activity (urinary MR), in words [6, 14]: unaffected; also recorded: not significantly altered
NAT2 activity, urinary MR, mean percent change [6, 13]: 4.5%
NAT2 activity, urinary MR AFMU/(AFMU + 1 MU + 1 MX) ([6]; single 600 mg efavirenz dose): 0.31 ± 0.21
Efavirenz exposure (AUC0–24), fold higher in CYP2B6*6/*6 vs CYP2B6*1/*1 ([7]; multiple doses of efavirenz): 2.5 fold
Efavirenz exposure (AUC0–24), fold higher in CYP2B6*6/*6 vs CYP2B6*1/*6 ([7]; multiple doses of efavirenz): 2 fold
Efavirenz exposure (AUC0–∞), fold higher in CYP2B6*6/*6 vs CYP2B6*1/*1 ([7]; single dose of efavirenz): 2.1 fold
Efavirenz exposure (AUC0–∞), fold higher in CYP2B6*6/*6 vs CYP2B6*1/*6 ([7]; single dose of efavirenz): 1.8 fold
XO activity, urinary MR (1 MU)/(1 MX + 1 MU) (xanthine oxidase (XO); [15]): 0.37 ± 0.16
Effect on XO activity (urinary MR), in words (xanthine oxidase (XO); [14]): unaffected; also recorded: not significantly altered
XO activity, urinary MR, mean percent change (xanthine oxidase (XO); [13]): 1.1%
XO activity, urinary MR (1 MU)/(1 MX + 1 MU) (xanthine oxidase (XO); single 600 mg efavirenz dose): 0.37 ± 0.16
Inhibition of CYP2C8 in vitro, in words (CYP2C8): directly inhibits
Inhibition/inactivation of CYP2A6 activity in vitro, in words (CYP2A6 [8]): does not inhibit/inactivate
Between‐subject differences in efavirenz exposure [9]: Approximately sevenfold
Correlation (r s) of CYP1A2 activity with efavirenz AUC0–24 h (CYP1A2 [10]; [16]): −0.61
Correlation (r s) of percent change in CYP1A2 activity with efavirenz AUC0–24 h (CYP1A2 [10]; [16]): −0.41
Decrease of CYP1A2 activity (plasma MRs) (CYP1A2 [10]; [12]): 38%
Interindividual range of percent change in CYP1A2 activity (plasma MRs) (CYP1A2 [10]; chronic efavirenz relative to single‐dose phase, 58 subjects): −78.2% to 31.7
CYP1A2 activity, plasma MR, mean percent change (CYP1A2 [10]; [13]): −38.1%
Correlation (r s) of CYP1A2 activity with efavirenz AUC0–∞ (CYP1A2 [10]; single 600 mg dose of efavirenz): −0.32
Inhibition of CYP2C19 in vitro, in words (CYP2C19): directly inhibits

O=C1Nc2c(O)cc(Cl)cc2[C@@](C#CC2CC2)(C(F)(F)F)O1 [8‐hydroxyefavirenz]
Inhibition/inactivation of CYP1A2 activity in vitro, in words (CYP1A2 [5]): no effect

COCCCC/C(=N\OCCN)c1ccc(C(F)(F)F)cc1 [fluvoxamine]
Increase of plasma exposure of tizanidine (CYP1A2 [11]): up to 30 fold
